In ChEMBL document CHEMBL4422680, “Synthesis, biological evaluation, and molecular docking study of novel allyl-retrochalcones as a new class of protein tyrosine phosphatase 1B inhibitors” (Bioorg Med Chem, 2019):

Columns and labels:
[1] = target: T1, Tyrosine-protein phosphatase non-receptor type 1 (Homo sapiens) (UniProt P18031); assay: (§1) Inhibition of recombinant human PTP1B using pNPP as substrate measured after 30 mins
T1 sequence (whole entry): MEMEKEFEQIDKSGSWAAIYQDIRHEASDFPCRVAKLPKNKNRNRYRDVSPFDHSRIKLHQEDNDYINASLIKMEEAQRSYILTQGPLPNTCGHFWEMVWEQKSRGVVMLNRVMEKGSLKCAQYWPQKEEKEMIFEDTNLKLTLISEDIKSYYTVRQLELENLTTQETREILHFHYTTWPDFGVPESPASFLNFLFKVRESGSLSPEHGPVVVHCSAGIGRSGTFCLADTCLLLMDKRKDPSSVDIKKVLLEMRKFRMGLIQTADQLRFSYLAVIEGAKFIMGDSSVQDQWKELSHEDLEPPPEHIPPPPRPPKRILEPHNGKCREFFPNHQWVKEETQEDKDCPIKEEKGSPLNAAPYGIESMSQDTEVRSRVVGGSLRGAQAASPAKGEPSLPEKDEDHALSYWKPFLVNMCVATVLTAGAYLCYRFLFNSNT

[2] = target: T2, Tyrosine-protein phosphatase non-receptor type 1 (Homo sapiens, UniProt P18031); assay: as §1
T2 sequence (P18031 whole entry): T1 sequence (whole entry)

SMILES | inhibition [1] | IC50 ([2]; read-out: IC50) | IC50 [2]
C=CCc1cc(/C=C/C(=O)c2ccc(OCC=C(C)C)cc2)c(OC)cc1O | Dose-dependent effect | 5.9 µM | 
C=CCc1cc(/C=C/C(=O)c2cccc(N(CC=C)CC=C)c2)c(OC)cc1O | Dose-dependent effect | 4.7 µM | 
C=CCc1cc(/C=C/C(=O)c2cccc(N3CCCCC3)c2)c(OC)cc1O | Dose-dependent effect | 7.2 µM | 
C=CCc1cc(/C=C/C(=O)c2ccc(OCC(=O)OCC)cc2)c(OC)cc1O | Dose-dependent effect | 9.4 µM | 
C=CCc1cc(/C=C/C(=O)c2cccc(O)c2)c(OC)cc1O |  |  | Not Active
C=CCc1cc(/C=C/C(=O)c2ccc(OCC=C(C)C)cc2O)c(OC)cc1O | Dose-dependent effect | 3 µM | 
C=CCc1cc(/C=C/C(=O)c2ccc(O)cc2)c(OC)cc1OC1CCCCO1 (centres undefined) | Dose-dependent effect | 9.4 µM | 
C=CCc1cc(/C=C/C(=O)c2ccc(N3CCCCC3)cc2)c(OC)cc1O | Dose-dependent effect | 6.9 µM | 
C=CCc1cc(/C=C/C(=O)c2ccc(OC(=O)c3ccc(C(C)(C)C)cc3)cc2)c(OC)cc1O | Dose-dependent effect | 5 µM | 
C=CCc1cc(/C=C/C(=O)c2cccc(OC)c2)c(OC)cc1O | Dose-dependent effect | 14.6 µM | 
C=CCc1cc(/C=C/C(=O)c2ccc(OC(=O)c3ccc(Br)cc3)cc2)c(OC)cc1O | Dose-dependent effect | 6.6 µM | 
C=CCc1cc(/C=C/C(=O)c2ccc(OC)cc2O)c(OC)cc1O | Dose-dependent effect | 24.8 µM | 
C=CCc1cc(/C=C/C(=O)c2ccc(N3CCOCC3)cc2)c(OC)cc1O | Dose-dependent effect | 12.3 µM | 
C=CCc1cc(/C=C/C(=O)c2cccc(N(C)C)c2)c(OC(C)C)cc1O | Dose-dependent effect | 6.9 µM | 
C=CCOc1ccc(C(=O)/C=C/c2cc(CC=C)c(O)cc2OC)c(OC)c1 | Dose-dependent effect | 3.9 µM | 
C=CCc1cc(/C=C/C(=O)c2ccc(O)cc2)c(OC)cc1O | Dose-dependent effect | 12.9 µM | 
C[C@H]1[C@H](C)CC[C@]2(C(=O)O)CC[C@]3(C)C(=CC[C@@H]4[C@@]5(C)CC[C@H](O)C(C)(C)[C@@H]5CC[C@]43C)[C@H]12 | Dose-dependent effect |  | 
C=CCOc1ccc(C(=O)/C=C/c2cc(CC=C)c(OC3CCCCO3)cc2OC)c(O)c1 (centres undefined) |  |  | Not Active
C=CCc1cc(/C=C/C(=O)c2ccc(OC)c(C(C)C(=C)C)c2)c(OC)cc1O (centres undefined) | Dose-dependent effect | 5.4 µM | 
C=C(C)[C@H](C)c1cc(/C=C/C(=O)c2ccc(O)cc2)c(OC)cc1O [LICOCHALCONE E] | Dose-dependent effect | 4 µM | 
C=CCOc1ccc(C(=O)/C=C/c2cc(CC=C)c(O)cc2OC)cc1 | Dose-dependent effect | 5.4 µM | 
